# Measurements: patent US10330670B2, “Therapeutic or prophylactic agent for retinopathy of prematurity, testing method for retinopathy of prematurity, and screening method for therapeutic or prophylactic substance for retinopathy of prematurity” (TOKYO UNIVERSITY OF AGRICULTURE AND TECHNOLOGY, priority 2012, dated 2019)
# Entries after “also recorded” stand apart in the source; their conditions may differ.
# How the values were obtained:
# [1] = tested on: human mast cell strain HMC-1; assay: Degranulation of mast cells induced by variation of oxygen concentration, β-hexosaminidase release; type: cell-based; conditions: 75% O2 24 hours then 20% O2 12 hours, p<0.05
# Text: It has been known that human mast cell strain HMC-1 is a cell strain derived from leukemia, that it has a characteristic as a mast cell, and that it includes β-hexosaminidase in its granules. With reference to a previous report (European Journal of Immunology, Vol. 29, 2645-2649 (1999)), HMC-1 cells were suspended in an α-MEM culture medium to which 10% (v/v) fetal calf serum and a usual dose of antibiotic had been added for preparation of a mast cell suspension with a cell concentration of 5×10^5 cells/ml. Throughout the test period including the period in the high oxygen concentration environment, all the cells were subjected to an environment of 5% (v/v) CO2, 37° C. as the cultivation condition other than the oxygen concentration.
# The mast cell suspension was dispensed on a 96-well plate at 4×10^5 cells/well. Cromolyn and each of the seven candidate substances were added to obtain the following concentrations. As controls (media) to which the agent was not added and as non-treated examples to which the marker substance release induction process was not carried out, wells to which neither cromolyn nor the candidate substances was added were set.
# The marker substance (β-hexosaminidase) release induction process and the step for contact with the mast cells HMC-1 that had been subjected to the marker substance release induction process were performed by retaining the 96-well plate in the high oxygen concentration environment (75 v/v % oxygen) for 24 hours and in the normal oxygen environment (20 v/v % oxygen) for 12 hours. For the non-treated example, the 96-well plate was retained in the normal oxygen environment (20 v/v % oxygen) for 24 hours and further retained in the normal oxygen environment for 12 hours.
# The detection and measurement of the marker substance (β-hexosaminidase) that had been released by degranulation of the mast cells in the contacting step were carried out by a previously reported method (Eur. J. Immunol. 19 (1989) 2251-2256). To put it briefly, the step was carried out in the following manner. After having collecting the supernatant from the respective wells after the contacting step, the pellets (cells) were dissolved in a 0.5% triton X-100-containing α-minimal essential medium (α-MEM: a product of Gibco) at the same volume. In the respective wells of the 96-well plate, 5 μl supernatant or cell lysates were mixed with a 50 μl substrate solution (1.3 mg/ml p-nitrophenyl-N-acetyl-β-D-glucosamine;
# pH 4.5 in 100 mM sodium citrate). After incubation at 37° C. for 60 minutes, 150 μl, 200 mM solution of glycine (pH 10.7) was added, and the reaction was stopped. The absorbance was measured at 414 nm. The (%) of the released marker substance (β-hexosaminidase) was calculated according to the following expression; OD(supernatant)/(OD(supernatant).+OD(pellet))×100.
# The test was performed by three-sample test, an average and standard deviation were calculated on the basis of the measurement results for statistic analysis by ANOVA+ Tukey's test.
# [2] = tested on: retinal neovascularization; assay: Influence of nafamostat mesilate (NM) on retinal neovascularization in ROP model mice; type: in vivo; conditions: 1 mg/kg intraperitoneally every day P12-P17
# Procedure: For the ROP models, the BMCMC-injected W^sh/W^sh mice produced in Reference Example 2 (administered by an amount of 1×10^6 cells/20 μL) were used, and W^sh/W^sh mice to which saline was administered by the same volume were used as the control group. The oxygen concentration for the period P0-P17 was replaced by the same schedule as Example 1 (see FIG. 7). 1 mg/kg/20 μl NM dissolved in saline or saline was injected to the mice intraperitoneally in the period P12-P17 every day. On P17, the mice were slaughtered and eyes are collected, and evaluation of neovascularization was performed in the similar manner as Example 1. The results are illustrated in FIG. 8. In FIG. 8 the sign “*” denotes P<0.05 (compared with the number of nuclei of the endothelial cells of the vessels of the control mice).
# [3] = tested on: retinal neovascularization; assay: Influence of cromolyn on retinal neovascularization in oxygen-induced ROP model mice; type: in vivo; conditions: eyes on P17
# Text: As have been reported before (Invest. Ophthalmol. Vis. Sci., 35, 101-111 (1994), etc.), for the +/+ mice, +/W^sh mice, and W^sh/W^sh mice, respectively, neonatal mice were placed in a closed chamber containing 75 v/v % O2 together with their mother for lactation on P7, and this state was maintained for 5 days (P7-P12). Subsequently, this state was continued for further 5 days (P12-P17) in the normal oxygen environment (21 v/v % O2) for induction of oxygen-induced retinopathy (OIR) for use as experimental ROP models. The control mice were raised in the normal oxygen environment (indoor environment, 25° C., 21 v/v % O2. The same applies for the description of Examples.) throughout the test period. Note that the symbol “P”, which refers to a date, herein denotes that the date is a postnatal date, and “P7”, for example, refers to a 7th postnatal date. On P17, eyes were collected from the mice with ROP, fixed with Davidson's fixative overnight, and then embedded with paraffin. Paraffin-embedded serial sections axially sectioned at 6 μm were obtained, stained with HE, images were taken at the magnification 20, and the number of nuclei of the endothelial cells on the side of the vitreous body of the internal limiting membrane was counted. In the immunohistochemical test, the sections were subjected to incubation at 4° C. overnight together with anti-PECAM-1 antibody (a product of Santa Cruz Biotechnology, Inc.) having been diluted at 1:100 (in capacity ratio). To examine an influence in various states of different oxygen concentration, mice for use in the tests were raised in a period from P0 to P17 according to the schedule in which the normal oxygen environment was used in the period P0-P7 (21 v/v % oxygen), the high oxygen concentration environment in the period P7-P12 (75 v/v % oxygen), and the normal oxygen environment in the period P12-P17. On P7 and P12, the oxygen concentration environment was replaced. The neonatal mice of +/+ mice and the W^sh/W^sh mice were divided into three groups, and cromolyn (a product of Sigma Aldrich Corporation) dissolved in phosphate buffered saline (PBS) was injected to the mice at the concentration of 50 mg/kg/20 μL intraperitoneally every day. PBS was administered to the control group at the same volume. Administration methods of the agent for the respective groups were as illustrated in FIG. 5. Specifically, for the first group, cromolyn was administered to the neonatal mice from P6 to P16. […] Subsequently, similarly to Reference Example 1, the number of nuclei of the endothelial cell was counted after staining the ocular sections by HE, and thereby influences of cromolyn on the retinal neovascularization in the +/+ and W^sh/W^sh neonatal mice was evaluated in the similar manner as Reference Example 1.
structure (smiles),measurement,setting,value
NC1=NCC2c3ccccc3Cc3ccccc3N12 (stereo not drawn) [epinastine],degranulation (ratio of released β-hexosaminidase) compared with controls (media),[1]; 1 ng/ml,inhibited the degranulation
Cc1cccn2c(=O)c(-c3nnn[nH]3)cnc12 [pemirolast],degranulation (ratio of released β-hexosaminidase) compared with controls (media),[1]; 10 nM pemirolast,inhibited the degranulation
"N=C(N)c1ccc2cc(OC(=O)c3ccc(N=C(N)N)cc3)ccc2c1 [NM, nafamostat mesilate]",retinal neovascularization (neovascular nuclei),[2]; +/+ mice with induced ROP,inhibited retinal neovascularization
same,retinal neovascularization (neovascular nuclei),[2]; BMCMC-injected W^sh/W^sh mice with induced ROP,inhibited retinal neovascularization
CCOCC(O)COc1ccc(NC(=O)CC[S+](C)C)cc1 (stereo not drawn) [suplatast],degranulation (ratio of released β-hexosaminidase) compared with controls (media),[1]; 10 μM suplatast,inhibited the degranulation
"O=C(O)c1cc(=O)c2c(OCC(O)COc3cccc4oc(C(=O)O)cc(=O)c34)cccc2o1 [cromolyn, cromoglycic acid]","retinal neovascularization (number of nuclei of the endothelial cell, HE-stained ocular sections)","[3]; +/+ mice, first group: 50 mg/kg intraperitoneally every day P6-P16",a level as low as that in the W^sh/W^sh mice; also recorded: decreased pathological neovascularization
same,"retinal neovascularization (number of nuclei of the endothelial cell, HE-stained ocular sections)","[3]; +/+ mice, third group: 50 mg/kg intraperitoneally every day P11-P16",a level as low as that in the W^sh/W^sh mice; also recorded: significantly small; also recorded: less than those in the W^sh/W^sh mice
same,"retinal neovascularization (number of nuclei of the endothelial cell, HE-stained ocular sections)",[3]; second group: 50 mg/kg intraperitoneally every day P6-P11 (high oxygen period),did not influence; also recorded: no effect of inhibition
same,"retinal neovascularization (number of nuclei of the endothelial cell, HE-stained ocular sections)","[3]; second group: 50 mg/kg intraperitoneally every day P6-P11 (high oxygen period), listed as Cromolyn",did not influence
same,degranulation (ratio of released β-hexosaminidase) compared with controls (media),[1]; 10 ng/ml,inhibited the degranulation
CC(C)c1ccc2oc3nc(N)c(C(=O)O)cc3c(=O)c2c1 [amlexanox],degranulation (ratio of released β-hexosaminidase) compared with controls (media),[1]; 1 μM amlexanox,inhibited the degranulation
C[C@@H]1CN([C@H]2CC[C@](C#N)(c3ccc(F)cc3)CC2)CC[C@]1(C(=O)O)c1ccccc1 [levocabastine],degranulation (ratio of released β-hexosaminidase) compared with controls (media),[1]; 10 nM levocabastine,inhibited the degranulation
